Laboratory results from patent US11696928B2, “Compounds and use thereof in the expansion of stem cells and/or progenitor cells” (UNIVERSITE DE MONTREAL, priority 2017, dated 2023).

Legend:
[1] = test system: Human CD34+ cord blood (CB) cells; experiment: CD34+ activity assessment (7-day expansion of pre-expanded CD34+ cells, flow cytometry); assay type: cell-based; settings: concentration at which compound/vehicle ratio of CD34+ cell number is >= 1.5; 7 days, with 35 nM UM0128171; Table 1
Protocol: Human CD34+ cord blood (CB) cells were isolated from fresh units using RosetteSep™ 0034 pre-enrichment cocktail followed by CD34 positive selection using EasySep Kit™ (StemCell Technologies). The cells were then pre-expanded in bulk, by culturing at 37° C. for 6 days in HSC expansion media consisting of StemSpan ACF (StemCell Technologies) supplemented with 100 ng/mL Stem Cell Factor (SCF, Shenandoah), 100 ng/mL FMS-like Tyrosine Kinase 3 Ligand (FLT3L, Shenandoah), 50 ng/mL Thrombopoietin (TPO, Shenandoah), 2 mM GlutaMAX™ (Invitrogen), 10 μg/mL low density lipoproteins (LDL, StemCell Technologies), 10 μg/mL Ciprofloxacin and 35 nM UM0128171. […] Following the pre-expansion, cells were harvested, aliquoted and frozen until use.
For each activity assessment, CD34+ pre-expanded cells (approximately 2000 per well in a 384-well plate) were cultured in HSC expansion media, in the presence of 35 nM UM0128171. Compounds were serially diluted (1/2) in DMSO (10 dilutions per compound) and added to the cells in order to achieve a 1/1000 final dilution. StemRegenin1 (SR1) and/or Compound 1001 were included in all experiments as controls to monitor assay performance. The plate was incubated at 37° C. for 7 days in static conditions (i.e. no shaking and no addition of media). Flow cytometry analysis was performed at the end of the 7-day expansion. Cells were stained with PE-labeled anti-human CD45RA (BD Biosciences) and APC-labeled anti-human CD34 (BD Biosciences) and analyzed using Intellicyt IQue cytometer equipped with ForeCyt software. Gates were drawn around the populations of interest to obtain cell numbers and relative proportions. The EC1.5 value, which is the concentration at which the compound/vehicle ratio is greater or equal to 1.5, was calculated by plotting the CD34+ cell number against concentrations (log-scale) in a 4-PL curve and fitting the curve using IDBS XLfit (set model 251) in Microsoft Excel.

[2] = molecular target: T1, AhR (Homo sapiens, UniProt P35869); experiment: Inhibition of AhR-mediated gene transcription (HEK-XRE 11.1 luciferase reporter, MeBIO induction); assay type: cell-based; settings: HEK-XRE 11.1 cells, MeBIO 0.1 nM, luminescence after 24 hours; Table 1
T1 construct: One of the resultant clones was named HEK-XRE 11.1, and used in the reporter gene assays; endogenous in cells; host or cells: HEK-XRE 11.1 (HEK cells stably carrying the AhR-responsive luciferase reporter X4-4.27 and phRL-CMV)
T1 sequence (P35869 11-848): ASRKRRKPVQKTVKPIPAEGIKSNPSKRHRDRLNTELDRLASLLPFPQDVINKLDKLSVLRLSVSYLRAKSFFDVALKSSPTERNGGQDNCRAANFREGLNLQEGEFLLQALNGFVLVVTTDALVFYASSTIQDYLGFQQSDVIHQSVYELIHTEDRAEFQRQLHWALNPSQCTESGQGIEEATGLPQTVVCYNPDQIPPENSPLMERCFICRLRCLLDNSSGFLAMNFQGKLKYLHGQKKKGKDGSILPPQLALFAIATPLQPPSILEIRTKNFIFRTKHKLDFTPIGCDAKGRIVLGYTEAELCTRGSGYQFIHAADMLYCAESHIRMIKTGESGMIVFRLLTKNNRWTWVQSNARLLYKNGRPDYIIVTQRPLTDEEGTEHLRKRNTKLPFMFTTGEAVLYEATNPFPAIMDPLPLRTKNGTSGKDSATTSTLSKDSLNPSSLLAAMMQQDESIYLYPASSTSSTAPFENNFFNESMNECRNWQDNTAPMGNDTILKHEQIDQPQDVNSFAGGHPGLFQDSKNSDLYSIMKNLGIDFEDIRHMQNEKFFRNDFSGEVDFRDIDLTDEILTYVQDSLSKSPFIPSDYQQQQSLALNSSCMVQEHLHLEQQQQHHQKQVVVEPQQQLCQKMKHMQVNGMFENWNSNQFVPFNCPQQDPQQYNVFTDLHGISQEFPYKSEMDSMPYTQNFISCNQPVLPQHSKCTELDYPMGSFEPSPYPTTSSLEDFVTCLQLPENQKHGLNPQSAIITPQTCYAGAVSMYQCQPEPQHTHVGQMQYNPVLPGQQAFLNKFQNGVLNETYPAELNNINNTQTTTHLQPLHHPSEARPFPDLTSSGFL
Protocol: HEK cells line was transfected with an AhR-responsive firefly luciferase reporter gene X4-4.27 and the stable transfectants generated were again transfected with phRL-CMV (a Renilla luciferase expression vector; Promega) along with pBAsi-hU6 Pur DNA (a plasmid carrying the puromycin-resistant gene; TaKaRa, Shiga, Japan), and maintained in the presence of both hygromycin B and puromycin (2 mg/mL). One of the resultant clones was named HEK-XRE 11.1, and used in the reporter gene assays.
HEK-XRE 11.1 cells were plated in 384-well plates at a density of 25,000 cells in 50 uL volume per well. The induction of ARh pathway was done by addition of MeBIO at 0.1 nM concentration. ARh antagonist compounds were then added to seeded cells in serial dilutions (8 dilutions, 1:[…] down to 5 nM) in duplicate wells. Renilla expression was not used as internal control. On each plate, Compound 1001 and SR1 were added as dose control (8 dilutions, 1:3, 5 mM down to 2.5 nM for SR1 and 2 mM down to 1 nM for compound 1001). Luminescence activity was evaluated after 24 hours culture using Lumi-384-CellTiterGlo-Corning protocol. Dose-response curves were generated using nonlinear regression in Excel.

| Compound | EC1.5 [1] [nM] | IC50 [2] [nM] |
| --- | --- | --- |
| Nc1c(C(=O)Nc2cccc3cnccc23)sc2ncc(C(F)(F)F)cc12 [Compound 1039] | >5000 | 50 to 500 |
| Nc1c(C(=O)Nc2cccc3ncccc23)sc2ncc(C(F)(F)F)cc12 [Compound 1040] | >5000 | 50 to 500 |
| Nc1c(C(=O)Nc2ccc3ncccc3c2)sc2ncc(C(F)(F)F)cc12 [Compound 1041] | 1000 to 5000 | 50 to 500 |
| Nc1c(C(=O)Nc2cnc3ccccc3c2)sc2ncc(C(F)(F)F)cc12 [Compound 1042] | 1000 to 5000 | > 500 |
| Nc1c(C(=O)Nc2ccnc3ccccc23)sc2ncc(C(F)(F)F)cc12 [Compound 1043] | >5000 | > 500 |
| CCOC(=O)c1cnc2sc(C(=O)Nc3ccccc3)c(N)c2c1 [Compound 1044] | >5000 | 50 to 500 |
| Nc1c(C(=O)Nc2ccc(Cl)cc2)sc2ncc(C(F)(F)F)cc12 [Compound 1045] | <100 | < 50 |
| COCCc1ccc(NC(=O)c2sc3ncc(C(F)(F)F)cc3c2N)cc1 [Compound 1046] | >5000 | 50 to 500 |
| Cc1ccc(NC(=O)c2sc3ncc(C(F)(F)F)cc3c2N)cc1 [Compound 1047] | 100 to 1000 | < 50 |
| COc1ccc(NC(=O)c2sc3ncc(C(F)(F)F)cc3c2N)cc1 [Compound 1048] | <100 | < 50 |
| Nc1c(C(=O)Nc2ccc(Cl)cc2)sc2cnc(C(F)(F)F)cc12 [Compound 1051] | 1000 to 5000 | 50 to 500 |
| Cc1ccc(NC(=O)c2sc3cnc(C(F)(F)F)cc3c2N)cc1 [Compound 1052] | 1000 to 5000 | 50 to 500 |
| Nc1c(C(=O)Nc2ccc(-c3ccncc3)cc2)sc2ncc(C(F)(F)F)cc12 [Compound 1056] | >5000 | 50 to 500 |
| Nc1c(C(=O)Nc2cccc(-c3cccnc3)c2)sc2ncc(C(F)(F)F)cc12 [Compound 1057] | 1000 to 5000 | < 50 |
| Nc1c(C(=O)Nc2cccc(-c3ccncc3)c2)sc2ncc(C(F)(F)F)cc12 [Compound 1058] | 100 to 1000 | < 50 |
| Nc1c(C(=O)Nc2cccc(-c3ccccc3)c2)sc2ncc(C(F)(F)F)cc12 [Compound 1059] | 1000 to 5000 | 50 to 500 |
| Nc1c(C(=O)Nc2ccc(C(F)(F)F)cc2)sc2ncc(C(F)(F)F)cc12 [Compound 1061] | <100 | < 50 |
| Cc1cnc2sc(C(=O)Nc3ccc(Br)cc3)c(N)c2c1 [Compound 1062] | <100 | < 50 |
| Cc1cnc2sc(C(=O)Nc3ccncc3)c(N)c2c1 [Compound 1063] | >5000 | 50 to 500 |
| Nc1c(C(=O)Nc2ccc(Br)cc2)sc2ccc(C(F)(F)F)cc12 [Compound 1064] | 100 to 1000 | 50 to 500 |
| Cc1ccc(NC(=O)c2sc3ccc(C(F)(F)F)cc3c2N)cc1 [Compound 1065] | 100 to 1000 | 50 to 500 |
| Nc1c(C(=O)Nc2ccc(Cl)cc2)sc2ccc(C(F)(F)F)cc12 [Compound 1066] | 100 to 1000 | < 50 |

| Compound | EC1.5 [1] [nM] | IC50 [2] [nM] |
| --- | --- | --- |
| Nc1c(C(=O)Nc2cccnc2)sc2ccc(C(F)(F)F)cc12 [Compound 1067] | 1000 to 5000 | < 50 |
| Cc1cnc2sc(C(=O)Nc3ccc(Cl)cc3)c(N)c2c1 [Compound 1068] | <100 | < 50 |
| Cc1ccc(NC(=O)c2sc3ncc(C)cc3c2N)cc1 [Compound 1069] | 100 to 1000 | < 50 |
| Cc1ccc(NC(=O)c2sc3ncc(C(F)(F)F)cc3c2N)cn1 [Compound 1070] | >5000 | 50 to 500 |
| COc1ccc(NC(=O)c2sc3ncc(C(F)(F)F)cc3c2N)cn1 [Compound 1071] | 100 to 1000 | < 50 |
| Cc1ccc2sc(C(=O)Nc3ccccc3)c(N)c2n1 [Compound 1072] | >5000 | 50 to 500 |
| Cc1ccc2sc(C(=O)Nc3ccc(Cl)cc3)c(N)c2n1 [Compound 1073] | >5000 | 50 to 500 |
| Nc1c(C(=O)Nc2ccc(F)c(Cl)c2)sc2ncc(C(F)(F)F)cc12 [Compound 1074] | 100 to 1000 | < 50 |
| Nc1c(C(=O)Nc2ccc(F)c(F)c2)sc2ncc(C(F)(F)F)cc12 [Compound 1075] | 100 to 1000 | < 50 |
| Cc1cc(NC(=O)c2sc3ncc(C(F)(F)F)cc3c2N)ccc1F [Compound 1076] | 100 to 1000 | 50 to 500 |
| Nc1c(C(=O)Nc2cccc(F)c2)sc2ncc(C(F)(F)F)cc12 [Compound 1077] | 100 to 1000 | < 50 |
| Cc1ccc(NC(=O)c2sc3ncc(C(F)(F)F)cc3c2N)cc1F [Compound 1078] | 1000 to 5000 | 50 to 500 |
| Nc1c(C(=O)Nc2cc(F)cc(F)c2)sc2ncc(C(F)(F)F)cc12 [Compound 1079] | 1000 to 5000 | 50 to 500 |
| COc1cccc(NC(=O)c2sc3cnc(C(F)(F)F)cc3c2N)c1 [Compound 1080] | 100 to 1000 | < 50 |
| COc1cccc(NC(=O)c2sc3nc4c(cc3c2N)CCC4)c1 [Compound 1081] | <100 | < 50 |
| Nc1c(C(=O)Nc2ccc(Cl)cc2)sc2nc3c(cc12)CCC3 [Compound 1082] | <100 | < 50 |
| COc1ccc(NC(=O)c2sc3ccc(C(F)(F)F)cc3c2N)cc1 [Compound 1083] | <100 | 50 to 500 |
| Nc1c(C(=O)Nc2ccc(OC(F)(F)F)cc2)sc2ncc(C(F)(F)F)cc12 [Compound 1084] | <100 | < 50 |
| COc1cccc(NC(=O)c2sc3ncc(C(F)(F)F)cc3c2N)c1 [Compound 1085] | 100 to 1000 | 50 to 500 |
| Nc1c(C(=O)Nc2ccc(OC(F)F)cc2)sc2ncc(C(F)(F)F)cc12 [Compound 1086] | 100 to 1000 | < 50 |
| COc1ccc(NC(=O)c2sc3ncc(C(F)(F)F)cc3c2N)cc1Cl [Compound 1087] | <100 | < 50 |
| Nc1c(C(=O)Nc2ccc(F)cc2)sc2cnc(C(F)(F)F)cc12 [Compound 1088] | >5000 | < 50 |
